Some test systems named below: SN12C renal; SK-MEL-28 melanoma; HS 578T breast; UACC-257 melanoma; SNB-75 CNS; OVCAR-3 ovarian; M14 melanoma; NCI-H226 lung; HCT-116 colon; HT29 colon.
Test in all cases: NCI-60 cell line screen, 48 h

The text below walks through data of PubChem BioAssay (NCI).

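Tested at 5 concentrations; 48 h exposure; 96-well plates; endpoints linearly interpolated, else capped at highest concentration. Here, GI50 denotes the concentration required for 50% inhibition of growth. At the TGI there is no net growth.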

On to `Cc1c(C)n(CCCN2CCN(C)CC2)c2ccc(Oc3cccc(C(=O)N4CCN(CCc5ccc(F)cc5)CC4)c3)cc12`, for which the GI50 is 1.54 µM with SN12C renal; 1.78 µM in the test on SK-MEL-28 melanoma; 2.05 µM with HS 578T breast; 1.88 µM in the test on UACC-257 melanoma; 1.39 µM with SNB-75 CNS; 1.82 µM in the test with OVCAR-3 ovarian. Besides, the TGI with SN12C renal came out at 3.09 µM; in the test on SK-MEL-28 melanoma, 3.24 µM; in the test with HS 578T breast it was 4.51 µM; in the test on UACC-257 melanoma, 3.72 µM; with SNB-75 CNS, 2.85 µM; in the test on OVCAR-3 ovarian it was 3.39 µM.

Turning to `Cc1ccc(O)c(NC(=O)c2cccc(Nc3ccnc(C(F)(F)F)c3)c2)c1`, the GI50 was 5.81 µM with SN12C renal; 16 µM in the test with SK-MEL-28 melanoma; 16.1 µM in the test with HS 578T breast; 7.55 µM with M14 melanoma; 11.4 µM in the test on SNB-75 CNS; 0.894 µM in the test on NCI-H226 lung. Moreover, the GI50 in the test on HCT-116 colon was 4.14 µM; with HT29 colon, 15.7 µM; in the test on OVCAR-3 ovarian it was 15.5 µM. In addition, the TGI was determined as 37.3 µM in the test with SN12C renal; 31.2 µM in the test with SK-MEL-28 melanoma; 40.3 µM with HS 578T breast; 22.3 µM in the test with M14 melanoma; 25.3 µM in the test on SNB-75 CNS; 23.4 µM in the test on NCI-H226 lung. Further, the figures for the TGI in the test with HCT-116 colon, in the test with HT29 colon and with OVCAR-3 ovarian were 17.8 µM, 33.4 µM and 41.6 µM, respectively.

With `O=C(CN(/C=C/C(=O)C(F)(F)F)c1ccc(Cl)cc1)c1ccc(Cl)cc1`, the GI50 in the test with SN12C renal was 11.9 µM; in the test on SK-MEL-28 melanoma, 16.6 µM; with HS 578T breast, 13.8 µM; in the test with UACC-257 melanoma, 7.45 µM; in the test with NCI-H226 lung, 14.8 µM; with HCT-116 colon it was 4.09 µM. For the same compound, the GI50 with HT29 colon is 7.41 µM; with OVCAR-3 ovarian, 4.52 µM. The TGI worked out at 24.2 µM in the test with SN12C renal; 39.5 µM with SK-MEL-28 melanoma; 42.5 µM in the test with HS 578T breast; 20.8 µM with UACC-257 melanoma; 29.4 µM in the test with NCI-H226 lung; 20.7 µM with HCT-116 colon. The TGI was > 100 µM in the test with HT29 colon and 17.3 µM with OVCAR-3 ovarian.

`O=C(O)CSc1n[nH]c(=O)[nH]c1=O`: the TGI with SN12C renal, in the test on SK-MEL-28 melanoma, in the test on HS 578T breast, in the test on M14 melanoma, in the test with SNB-75 CNS and in the test with NCI-H226 lung was > 100 µM each time. For the same compound, the TGI in the test with HCT-116 colon, in the test with HT29 colon and in the test with OVCAR-3 ovarian was > 100 µM each time.

As for `NS(=O)(=O)OC[C@H]1C[C@@H](Nc2ccnc3cc(-c4cccc(SC(F)(F)F)c4)nn23)[C@H](O)[C@@H]1O`, the GI50 was 0.0462 µM with SN12C renal; 0.0189 µM in the test on SK-MEL-28 melanoma; 0.0351 µM with HS 578T breast; 0.0278 µM with UACC-257 melanoma; 0.0429 µM in the test with M14 melanoma; 0.0397 µM in the test with SNB-75 CNS. The GI50 was 0.0159 µM with HCT-116 colon, 0.249 µM with HT29 colon and < 0.0166 µM in the test on OVCAR-3 ovarian. The TGI was determined as 0.319 µM with SN12C renal; 0.065 µM with SK-MEL-28 melanoma; 1.95 µM with HS 578T breast; 0.108 µM with UACC-257 melanoma; 0.278 µM in the test with M14 melanoma; 0.187 µM in the test on SNB-75 CNS. Further, the TGI in the test with HCT-116 colon stood at 0.0571 µM; with HT29 colon it was 0.552 µM; in the test on OVCAR-3 ovarian, 0.034 µM.

`C=C(c1ccc(OC)c(/C=C/C(=O)c2ccc3c(c2)OCO3)c1)c1cc(OC)c(OC)c(OC)c1`: the GI50 in the test on SN12C renal is 3.84 µM; in the test on HS 578T breast, 4.65 µM; with UACC-257 melanoma, 6.69 µM; in the test with SNB-75 CNS it was 1.64 µM; in the test on HT29 colon, 2.98 µM; in the test with OVCAR-3 ovarian, 2.98 µM. Moreover, the TGI was > 100 µM in the test on SN12C renal; > 100 µM in the test with HS 578T breast; > 100 µM in the test on UACC-257 melanoma; 7.08 µM with SNB-75 CNS; 10.4 µM with HT29 colon; 8.21 µM in the test with OVCAR-3 ovarian.

As to `Cc1ccc(C)c(N2C(=O)C(=O)C(c3nc4ccccc4s3)/C(=N/N)C2=O)c1` (stereo not drawn), the TGI is > 100 µM in the test with SN12C renal; > 100 µM in the test with SK-MEL-28 melanoma; > 74.5 µM in the test with UACC-257 melanoma; > 100 µM in the test on M14 melanoma; > 100 µM with SNB-75 CNS; > 100 µM in the test on NCI-H226 lung. Moreover, the TGI in the test on HCT-116 colon, in the test on HT29 colon and with OVCAR-3 ovarian was > 100 µM each time.

As to `NNC(=O)C(=O)N/N=C(\CCCC(=O)Nc1ccc(Cl)cc1)CC(=O)c1ccc(F)cc1`, the TGI in the test with SN12C renal, in the test on SK-MEL-28 melanoma, in the test on UACC-257 melanoma, in the test on M14 melanoma, with SNB-75 CNS and in the test with NCI-H226 lung was > 100 µM in each case. Moreover, the TGI in the test on HCT-116 colon, with HT29 colon and with OVCAR-3 ovarian was > 100 µM throughout.
